Our source for the IC50 and Papp values is ChEMBL document CHEMBL1147645, “Design and synthesis of 2,3,4,9-tetrahydro-1H-carbazole and 1,2,3,4-tetrahydro-cyclopenta[b]indole derivatives as non-nucleoside inhibitors of hepatitis C virus NS5B RNA-dependent RNA polymerase” (Bioorg Med Chem Lett, 2006).

RNA-directed RNA polymerase, sequence (O39930 whole entry): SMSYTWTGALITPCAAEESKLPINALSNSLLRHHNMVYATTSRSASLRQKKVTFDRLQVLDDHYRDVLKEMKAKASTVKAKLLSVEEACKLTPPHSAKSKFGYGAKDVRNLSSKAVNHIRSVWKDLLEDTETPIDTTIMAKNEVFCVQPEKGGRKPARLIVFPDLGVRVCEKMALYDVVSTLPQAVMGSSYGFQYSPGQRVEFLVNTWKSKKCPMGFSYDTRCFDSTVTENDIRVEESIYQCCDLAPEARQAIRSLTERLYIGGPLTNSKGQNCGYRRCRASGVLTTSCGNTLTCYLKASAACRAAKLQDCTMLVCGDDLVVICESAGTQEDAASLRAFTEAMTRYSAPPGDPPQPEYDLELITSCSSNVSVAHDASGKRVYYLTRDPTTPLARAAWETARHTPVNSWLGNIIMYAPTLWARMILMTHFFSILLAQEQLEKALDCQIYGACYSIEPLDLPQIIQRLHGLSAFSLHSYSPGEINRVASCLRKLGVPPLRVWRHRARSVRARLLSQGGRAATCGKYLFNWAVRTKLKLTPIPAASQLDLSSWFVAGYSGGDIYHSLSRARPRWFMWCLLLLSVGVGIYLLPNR

One series deals with Huh-7. In words: Cytotoxicity against Huh7 cells by MTS assay. In kind it is functional, cell-based. The following applies: Homo sapiens. (Formazan colour is commonly taken as a measure of viable cells.)
Take `CCCC1(C(=O)O)CCc2c1[nH]c1c(Cl)ccc(Cl)c21` (centres undefined): it took 43 µM to reach half-maximal inhibition (IC50).

System in another series: not listed separately
Briefly: Permeability at pH 7.4 by PAMPA assay. It counts as ADME. The following applies: read-out: permeability. On the technique in general: The PAMPA barrier holds no transporters, so it reflects passive diffusion.
For `CCCC1(C(=O)O)CCc2c1[nH]c1c(Cl)ccc(Cl)c21` (centres undefined), the Papp came to 6.48 ×10⁻⁶ cm/s.

The next series has as its target RNA-directed RNA polymerase (Hepacivirus hominis, UniProt O39930). Briefly: Inhibition of HCV 1b BK NS5B RNA polymerase. Details: species or system Hepatitis C virus (isolate BK).
Conditions: not given
Molecule `CCCC1(CC(=O)O)CCCc2c1[nH]c1c(Cl)cc(Br)cc21` (centres undefined) came in with an IC50 above 33 µM. The same measure, in the same setting: the same measure for `CCCCC1(C(=O)O)CCc2c1[nH]c1c(F)ccc(C#N)c21` (centres undefined): 5.4 µM; for `CCCC1(C(=O)O)CCCc2c1[nH]c1c(C)ccc(C#N)c21` (centres undefined): 15 µM. Same read-out and setting: the same measure for `CCCC1(C(=O)O)CCc2c1[nH]c1c(C)cc(F)c(C#N)c21` (centres undefined): 1.8 µM; for `CCCC1(C(=O)O)CCCc2c1[nH]c1c(F)ccc(C#N)c21` (centres undefined): 10 µM; for `CCCC1(C(=O)O)CCCc2c1[nH]c1c(Cl)ccc(C(F)(F)F)c21` (centres undefined): 5.8 µM. With `CCCCC1(C(=O)O)CCc2c1[nH]c1c(Cl)ccc(Cl)c21` (centres undefined), the IC50 was 1.9 µM. The same measure, in the same setting: the same measure for `CCCC1(CC(=O)O)CCCc2c1[nH]c1c(F)ccc(F)c21` (centres undefined): above 33 µM; for `CCCCC1(C(=O)O)CCc2c1[nH]c1c(C)cc(F)c(C#N)c21` (centres undefined): 1.5 µM; for `C=CCC1(C(=O)O)CCc2c1[nH]c1c(C)ccc(C#N)c21` (centres undefined): 11 µM.

Consider `CCCC1(CC(=O)O)CCCc2c1[nH]c1c(C(N)=O)ccc(C#N)c21` (centres undefined), for which the concentration for half-maximal inhibition (IC50) is above 33 µM. On the same count and under the same terms, the same measure for `CCCC1(CC(=O)O)CCCc2c1[nH]c1c(C)ccc(C#N)c21` (centres undefined): 2.1 µM. On the same count and under the same terms, the same measure for `CCCC1(C(=O)O)CCc2c1[nH]c1c(C)ccc(C#N)c21` (centres undefined): 4.7 µM; for `CCCCC1(C(=O)O)CCc2c1[nH]c1c(C)ccc(C#N)c21` (centres undefined): 4.6 µM; for `CCCC1(C(=O)O)CCc2c1[nH]c1c(F)ccc(C#N)c21` (centres undefined): 8.1 µM.

Consider `C=CCC1(C(=O)O)CCc2c1[nH]c1c(C)cc(F)c(C#N)c21` (centres undefined), for which half-maximal inhibition (IC50) required 6.3 µM.

The molecule `CCCC1(CC(=O)O)CCCc2c1[nH]c1cc(F)cc(F)c21` (centres undefined) yielded an IC50 of 30 µM. For `C=CCC1(C(=O)O)CCc2c1[nH]c1c(Cl)ccc(Cl)c21` (centres undefined), it took 1.2 µM to reach half-maximal inhibition (IC50). Turning to `CCCC1(CC(=O)O)OCCc2c1[nH]c1c(C)ccc(C#N)c21` (centres undefined), the IC50 stood at 0.33 µM.

For the molecule `C=CCC1(C(=O)O)CCc2c1[nH]c1c(F)ccc(C#N)c21` (centres undefined), the IC50 was 14.5 µM. On the same count and under the same terms, for `CCCC1(C(=O)O)CCCc2c1[nH]c1c(Cl)ccc(Cl)c21` (centres undefined) the value was 3.2 µM.

As for `CCCC1(C(=O)O)CCc2c1[nH]c1c(Cl)ccc(Cl)c21` (centres undefined), the IC50 stood at 0.55 µM. Molecule `CCCC1(CC(=O)O)CCCc2c1[nH]c1ccccc21` (centres undefined) returned an IC50 above 33 µM. `CCCC1(CC(=O)O)CCCc2c1[nH]c1c(F)c(F)ccc21` (centres undefined) registered an IC50 above 33 µM. `CCCC1(CC(=O)O)CCCc2c1[nH]c1ccc(Cl)cc21` (centres undefined) came in with an IC50 above 33 µM. `CCCC1(CC(=O)O)CCCc2c1[nH]c1c(C#N)ccc(C#N)c21` (centres undefined) displayed an IC50 of 2.3 µM. `CCCC1(CC(=O)O)CCCc2c1[nH]c1c(F)ccc(C#N)c21` (centres undefined) displayed a 50% inhibitory concentration (IC50) of 2 µM.

For orientation: IC50 means the concentration needed to halve the response being measured. Low readings indicate greater potency in that assay, high ones weaker potency in that assay.
